Data from ChEMBL document CHEMBL1201862, “PubChem BioAssay data set” (2004).
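96-well plates; 48 h exposure; 5 concentrations. Endpoints by linear interpolation between flanking doses. Not reached: highest tested concentration assigned. At the GI50, growth is halved.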 The source made the active and inactive calls. Rule as the data show it: active = GI50 up to about 1.1 µM and inactive = higher.

How the values were obtained:
Assay in all cases: inhibition of tumour cell growth, NCI panel, 48 h
[1] = tested on: U-251
[2] = tested on: HT-29
[3] = tested on: COLO 205
[4] = tested on: RXF 393
[5] = tested on: SR
[6] = tested on: SK-MEL-28
[7] = tested on: HCC 2998
[8] = tested on: HL-60
[9] = tested on: SNB-19
[10] = tested on: PC-3
[11] = tested on: OVCAR-8
[12] = tested on: RPMI-8226
[13] = tested on: NCI-H522
[14] = tested on: SF-295
[15] = tested on: MDA-N
[16] = tested on: NCI/ADR-RES
[17] = tested on: MDA-MB-231
[18] = tested on: SK-OV-3
[19] = tested on: SK-MEL-2
[20] = tested on: DU-145

Row | SMILES | GI50 [1] | GI50 [2] | GI50 [3] | GI50 [4] | GI50 [5] | GI50 [6] | GI50 [7] | GI50 [8] | GI50 [9] | GI50 [10] | GI50 [11] | GI50 [12] | GI50 [13] | GI50 [14] | GI50 [15] | GI50 [16] | GI50 [17] | GI50 [18] | GI50 [19] | GI50 [20]
1 | COc1cc(C(c2cc3c(cc2O)OCO3)N2CCCCC2)cc(OC)c1OC (stereo not given) | 15.8 µM (inactive) | 17 µM (inactive) | 13.4 µM (inactive) | 13.2 µM (inactive) | 2.33 µM (inactive) | 16.7 µM (inactive) | 22.2 µM (inactive) | 1.76 µM (inactive) | 20.6 µM (inactive) | 15.8 µM (inactive) | 13.2 µM (inactive) | 2.96 µM (inactive) | 11.8 µM (inactive) | 41.5 µM (inactive) | 7.28 µM (inactive) | 17.5 µM (inactive) | 15 µM (inactive) | 22.2 µM (inactive) | 15.7 µM (inactive) | 17.5 µM (inactive)
2 | CCOc1ccc(-n2c(=O)c3nn4c(=O)n(-c5ccc(OCC)cc5)c(=O)c4nn3c2=O)cc1 | > 100 µM (inactive) | > 100 µM (inactive) | > 100 µM (inactive) | 44.6 µM (inactive) | > 100 µM (inactive) | > 100 µM (inactive) | > 100 µM (inactive) | > 100 µM (inactive) | 63 µM (inactive) | > 100 µM (inactive) | > 100 µM (inactive) | > 100 µM (inactive) | > 100 µM (inactive) | 43.3 µM (inactive) | > 100 µM (inactive) | > 100 µM (inactive) | 71.8 µM (inactive) | > 100 µM (inactive) | 39.4 µM (inactive) | > 100 µM (inactive)
3 | C=C1C(=O)CC2C1CC(=O)/C(C)=C/CCC(C)(O)C2O (stereo not given) | 10.8 µM (inactive) | 14.6 µM (inactive) | 2.03 µM (inactive) | 6.67 µM (inactive) | 7.91 µM (inactive) | 14.9 µM (inactive) | 7.74 µM (inactive) | 4.41 µM (inactive) | > 54.3 µM (inactive) | 0.853 µM (active) | 4.3 µM (inactive) | 1.41 µM (inactive) | 1.5 µM (inactive) | 27.4 µM (inactive) | 1.48 µM (inactive) | 8.2 µM (inactive) | 1.07 µM (active) | 2.84 µM (inactive) | 0.986 µM (active) | 8.77 µM (inactive)
4 | [N-]=[N+]=Nc1ccc2c(c1)Sc1ccccc1N2CCCCCl | 23.7 µM (inactive) | 20.1 µM (inactive) | 18.7 µM (inactive) | 78.9 µM (inactive) | 30.9 µM (inactive) | > 100 µM (inactive) | 61.8 µM (inactive) | 15.3 µM (inactive) | > 100 µM (inactive) | 41.3 µM (inactive) | 69.8 µM (inactive) | 23.3 µM (inactive) | 40.7 µM (inactive) | > 100 µM (inactive) | 48.4 µM (inactive) | > 100 µM (inactive) | > 100 µM (inactive) | > 100 µM (inactive) | 13.5 µM (inactive) | > 100 µM (inactive)
5 | Nc1nc(Sc2ccc([N+](=O)[O-])cn2)c2nc[nH]c2n1 | 15.7 µM (inactive) | 4.86 µM (inactive) | 11.8 µM (inactive) | 2.73 µM (inactive) | 3.46 µM (inactive) | 33.8 µM (inactive) | 12.8 µM (inactive) | 10.7 µM (inactive) | 23.8 µM (inactive) | 14 µM (inactive) | 4.81 µM (inactive) | 14 µM (inactive) | 12.3 µM (inactive) | 9.46 µM (inactive) | 3.61 µM (inactive) | 3.78 µM (inactive) | 5.9 µM (inactive) | 3.95 µM (inactive) | 2.47 µM (inactive) | 3.32 µM (inactive)
6 | O=C1CCC2(CC1CCSc1ccccc1)OCCO2 (stereo not given) | > 100 µM (inactive) | > 100 µM (inactive) | > 100 µM (inactive) | > 100 µM (inactive) | > 100 µM (inactive) | > 100 µM (inactive) | > 100 µM (inactive) | 95.1 µM (inactive) | > 100 µM (inactive) | > 100 µM (inactive) | > 100 µM (inactive) | > 100 µM (inactive) | > 100 µM (inactive) | > 100 µM (inactive) | > 100 µM (inactive) | > 100 µM (inactive) | > 100 µM (inactive) | > 100 µM (inactive) | > 100 µM (inactive) | > 100 µM (inactive)
7 | Cc1ccc(C2=CC(=O)/C(=C\C(=O)c3ccc(Br)cc3)O2)c(C)c1 | 18 µM (inactive) | 7.89 µM (inactive) | 3.85 µM (inactive) | 4.58 µM (inactive) | 2.36 µM (inactive) | 17.2 µM (inactive) | 12.1 µM (inactive) | 3.92 µM (inactive) | 18.7 µM (inactive) | 5.35 µM (inactive) | 6.58 µM (inactive) | 2.87 µM (inactive) | 1.69 µM (inactive) | 26 µM (inactive) | 6.11 µM (inactive) | 7.91 µM (inactive) | 9.31 µM (inactive) | 7.74 µM (inactive) | 49.1 µM (inactive) | 30.4 µM (inactive)
8 | Cc1ccnc2[nH]c3ccccc3c(=O)c12 | > 10 µM (inactive) | 15.7 µM (inactive) | 19.8 µM (inactive) | 15.6 µM (inactive) | 11.5 µM (inactive) | 15.1 µM (inactive) | 19.9 µM (inactive) | 15.1 µM (inactive) | 29.6 µM (inactive) | 21.8 µM (inactive) | 27 µM (inactive) | 25.9 µM (inactive) | 15.2 µM (inactive) | 35.5 µM (inactive) | 21 µM (inactive) | 28.6 µM (inactive) | 38.8 µM (inactive) | 43.5 µM (inactive) | 25.2 µM (inactive) | 30.2 µM (inactive)
9 | O=c1oc2nc(-c3ccccc3)cc(C(F)(F)F)c2n1Cc1ccccc1 | 4.8 µM (inactive) | 3.8 µM (inactive) | 7.82 µM (inactive) | 2.71 µM (inactive) | 0.454 µM (active) | 50.1 µM (inactive) | > 25.8 µM (inactive) | 2.15 µM (inactive) | 6.52 µM (inactive) | 3.46 µM (inactive) | 42.4 µM (inactive) | 4.41 µM (inactive) | 4.33 µM (inactive) | 5.12 µM (inactive) | 0.689 µM (active) | 3.42 µM (inactive) | > 24.4 µM (inactive) | 7.8 µM (inactive) | 6.43 µM (inactive) | 11.3 µM (inactive)
10 | Cc1ccc(C(=O)CC(O)(C(F)(F)F)C(F)(F)F)cc1[N+](=O)[O-] | 14.2 µM (inactive) | 1.87 µM (inactive) | 16.8 µM (inactive) | 13.8 µM (inactive) | 5.73 µM (inactive) | 8.15 µM (inactive) | 6.9 µM (inactive) | 2.12 µM (inactive) | 9.06 µM (inactive) | 11.3 µM (inactive) | 10.2 µM (inactive) | 12.6 µM (inactive) | 0.331 µM (active) | 7 µM (inactive) | 10.2 µM (inactive) | 16.3 µM (inactive) | 7.55 µM (inactive) | 18.1 µM (inactive) | 13.7 µM (inactive) | 6.22 µM (inactive)
